PubChem BioAssay (NCI)
Several values for one entry are separate records, joined by “and”; a condition that tells them apart may be missing. Equal entries are not always repeated.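 In this assay, cells in 96-well plates receive the compound at five concentrations for 48 hours. Endpoints are linearly interpolated between the surrounding concentrations. The concentration for 50% growth inhibition is given as GI50. TGI: total growth inhibition.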

Legend:
Experiment in all cases: NCI tumour cell line growth inhibition, 48 h
[1] = test system: UO-31 renal
[2] = test system: M14 melanoma
[3] = test system: ACHN renal
[4] = test system: SF-539 CNS
[5] = test system: NCI-H226 lung
[6] = test system: SN12C renal
[7] = test system: OVCAR-4 ovarian
[8] = test system: NCI-H460 lung
[9] = test system: SNB-75 CNS
[10] = test system: LOX IMVI melanoma

Row | Compound | GI50 [1] | TGI [1] | GI50 [2] | TGI [2] | GI50 [3] | TGI [3] | GI50 [4] | TGI [4] | GI50 [5] | TGI [5] | GI50 [6] | TGI [6] | GI50 [7] | TGI [7] | GI50 [8] | TGI [8] | GI50 [9] | TGI [9] | GI50 [10] | TGI [10]
1 | COc1ccc(Nc2c3ccccc3nc3ccccc23)cc1 | 1.21 µM | 5.27 µM | 0.735 µM | 13.6 µM | 1.28 µM | 5.68 µM | 2.95 µM | 14.6 µM | 1.2 µM | 3.84 µM | 2.18 µM | 13 µM | 2.06 µM | 15 µM | 0.479 µM | 6.2 µM | 2.85 µM | 17.6 µM | 0.984 µM | 4.81 µM
2 | CCCCCCCCCCCC1CCCC(C)N1 (stereo not given) | 3.29 µM | 16.4 µM and 105 µM | 8.47 µM | 31.7 µM | 11.4 µM | 25.5 µM | 12.2 µM | 24.8 µM and 141 µM | 16.7 µM | 36.9 µM and 166 µM | 6.3 µM | 23.9 µM and 131 µM | 7.18 µM | 22.3 µM and 136 µM | 3.67 µM | 12.5 µM and 118 µM | 9.82 µM | 24 µM and 151 µM | 3.62 µM | 16.1 µM and > 70.7 µM
